Source: patent USRE47689E1, “Compounds for treating spinal muscular atrophy” (PTC Therapeutics, Inc., priority 2011, dated 2019)

How the values were obtained:
[1] = tested on: SMN2 minigene (full length SMN2 minigene mRNA containing SMN2 exon 7); experiment: SMN2 minigene mRNA splicing RT-qPCR assay in cultured cells; format: cell-based, human; details: Homo sapiens, HEK293-H; HEK293H cells stably transfected with SMN2-A minigene; 24 hours; 7-point concentration curve; 1.5-fold relative to vehicle-treated cells; read-out: EC1.5x for production of full length SMN2 mRNA
Procedure, shortened: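 Full-length SMN2 minigene mRNA (exon 7 included), minigene-specific and not endogenous SMN, quantified by RT-qPCR multiplexed with GAPDH in stably transfected HEK293H cells after 24 h compound exposure at 37° C. Abundance from efficiency-corrected Ct, normalized to GAPDH and vehicle; EC1.5x reported as star bins.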

Smn protein = Smn protein assay in cultured cells (SMN HTRF); format: cell-based, human; details: 48 hours; for EC1.5x (concentration giving 1.5-fold Smn protein increase): SMA Type 1 patient fibroblast cells (GM03813), 7-point concentration curve, SMN HTRF, concentration producing 1.5 times Smn protein vs DMSO vehicle control, read-out: EC1.5x for Smn protein expression; for maximum fold (Fold) increase of Smn protein: SMA patient fibroblast cells, 7-point concentration data, fold increase relative to vehicle control (SMN HTRF)
Procedure, shortened: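 Smn in SMA fibroblast lysates, measured by anti-SMN HTRF after 48 h compound exposure; EC1.5x from fold change over vehicle.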

Structure (SMILES) | melting point | EC (1.5-fold) [1] | EC1.5x (concentration giving 1.5-fold Smn protein increase) (Smn protein) | maximum fold (Fold) increase of Smn protein (Smn protein)
O=c1oc2cc(N3CCNCC3)cc(F)c2cc1-c1nc2c(F)cccc2o1 [Compound 292, 5-fluoro-3-(4-fluoro-1,3-benzoxazol-2-yl)-7-(piperazin-1-yl)-2H-chromen-2-one] | 225 to 230 °C | 0.3 to 1 µM |  | *** (fold increase between >1.35 and ≤1.5)
CN1CCN(c2ccc3cc(-c4cccc(OC5CCC5)n4)c(=O)oc3c2)CC1 [Compound 415, 3-[6-(cyclobutyloxy)pyridin-2-yl]-7-(4-methylpiperazin-1-yl)-2H-chromen-2-one] | 158 to 160 °C | 3 to 30 µM |  | * (maximum fold increase of ≤1.2)
COc1cc(-c2cc3ccc(N4CCN(C)CC4)cc3oc2=O)ccn1 [Compound 165, 3-(2-methoxypyridin-4-yl)-7-(4-methylpiperazin-1-yl)-2H-chromen-2-one] | 169 to 171 °C | 3 to 30 µM |  | ** (fold increase between >1.2 and ≤1.35)
Cc1ccc2nc(-c3cc4ccc(N5CCCN(C)CC5)cc4oc3=O)cn2c1 [Compound 142, 7-(4-methyl-1,4-diazepan-1-yl)-3-(6-methylimidazo[1,2-a]pyridin-2-yl)-2H-chromen-2-one] | 175 to 180 °C | 1 to 3 µM | 300 to 1000 nM | **** (fold increase between >1.5 and ≤1.65)
Cc1cccn2cc(-c3cc4ccc(N5CCCN(C)CC5)cc4oc3=O)nc12 [Compound 246, 7-(4-methyl-1,4-diazepan-1-yl)-3-(8-methylimidazo[1,2-a]pyridin-2-yl)-2H-chromen-2-one] | 138 to 140 °C | 0.1 to 0.3 µM | 1000 to 3000 nM | *** (fold increase between >1.35 and ≤1.5)
COc1ccc(-c2cc3ccc(N4CCNCC4)cc3oc2=O)cc1OC [Cpd 316, 3-(3,4-dimethoxyphenyl)-7-(piperazin-1-yl)-2H-chromen-2-one] | 168 to 170 °C | 0.3 to 1 µM |  | ** (fold increase between >1.2 and ≤1.35)
C[C@@H]1CN(c2ccc3cc(-c4cc5ccccc5s4)c(=O)oc3c2)CCN1 [Compound 409, 3-(1-benzothiophen-2-yl)-7-[(3R)-3-methylpiperazin-1-yl]-2H-chromen-2-one] | 264 to 266 °C | 1 to 3 µM |  | * (maximum fold increase of ≤1.2)
Cc1nn2cc(-c3cc4ccc(N5CCN(C)CC5)cc4oc3=O)nc2s1 [Compound 442, 3-(2-methylimidazo[2,1-b][1,3,4]thiadiazol-6-yl)-7-(4-methylpiperazin-1-yl)-2H-chromen-2-one] | 233 to 236 °C | 3 to 30 µM |  | ** (fold increase between >1.2 and ≤1.35)
Cc1ccc2cc(-c3cc4ccc(N5C[C@@H](C)N[C@@H](C)C5)cc4oc3=O)cn2n1 [Compound 639, 7-[(3R,5S)-3,5-dimethylpiperazin-1-yl]-3-(2-methylpyrrolo[1,2-b]pyridazin-6-yl)-2H-chromen-2-one] | 105 to 108 °C | < 0.1 µM |  | * (maximum fold increase of ≤1.2)

Continued, in another order:

melting point | Structure (SMILES) | EC (1.5-fold) [1] | EC1.5x (concentration giving 1.5-fold Smn protein increase) (Smn protein) | maximum fold (Fold) increase of Smn protein (Smn protein)
191 to 198 °C | Cc1cn2cc(-c3cc4ccc(C5CCN(CC(C)C)CC5)cc4oc3=O)nc2c(C)n1 [Compound 914, 3-(6,8-dimethylimidazo[1,2-a]pyrazin-2-yl)-7-[1-(2-methylpropyl)piperidin-4-yl]-2H-chromen-2-one] | < 0.1 µM | < 300 nM | **** (fold increase between >1.5 and ≤1.65)
246 to 252 °C | Cc1ccn2cc(-c3cc4ccc(N5C[C@@H](C)N[C@@H](C)C5)cc4oc3=O)nc2n1 [Compound 225, 7-[(3R,5S)-3,5-dimethylpiperazin-1-yl]-3-(7-methylimidazo[1,2-a]pyrimidin-2-yl)-2H-chromen-2-one] | 0.3 to 1 µM |  | *** (fold increase between >1.35 and ≤1.5)
254 to 258 °C | Cc1cn2cc(-c3cc4ccc(O[C@@H]5CCNC5)cc4oc3=O)nc2cn1 [Compound 594, 3-(6-methylimidazo[1,2-a]pyrazin-2-yl)-7-[(3R)-pyrrolidin-3-yloxy]-2H-chromen-2-one] | < 0.1 µM | < 300 nM | ***** (fold increase >1.65)
185 to 187 °C | Cc1cn2cc(-c3cc4ccc(N5CCN(C)C(C)(C)C5)cc4oc3=O)nc2c(C)n1 [Compound 737, 3-(6,8-dimethylimidazo[1,2-a]pyrazin-2-yl)-7-(3,3,4-trimethylpiperazin-1-yl)-2H-chromen-2-one] | < 0.1 µM | < 300 nM | ***** (fold increase >1.65)
245 to 253 °C | Cc1cc(Cl)c2nc(-c3cc4ccc(N5CCN(C)CC5)cc4oc3=O)cn2c1 [Compound 343, 3-(8-chloro-6-methylimidazo[1,2-a]pyridin-2-yl)-7-(4-methylpiperazin-1-yl)-2H-chromen-2-one] | 0.1 to 0.3 µM |  | * (maximum fold increase of ≤1.2)
201 to 203 °C | Cc1cn2cc(-c3cc4ccc(OCCN5CCCC5)cc4oc3=O)nc2c(C)n1 [Cpd 918, 3-(6,8-dimethylimidazo[1,2-a]pyrazin-2-yl)-7-[2-(pyrrolidin-1-yl)ethoxy]-2H-chromen-2-one] | < 0.1 µM | 300 to 1000 nM | **** (fold increase between >1.5 and ≤1.65)
224 to 234 °C | Cc1cn2cc(-c3cc4ccc(C5CCN(CCCF)CC5)cc4oc3=O)nc2cn1 [Compound 917, 7-[1-(3-fluoropropyl)piperidin-4-yl]-3-(6-methylimidazo[1,2-a]pyrazin-2-yl)-2H-chromen-2-one] | < 0.1 µM | < 300 nM | ***** (fold increase >1.65)
290 to 300 °C | Cc1cc(F)cn2cc(-c3cc4ccc(N5C[C@@H](C)N[C@@H](C)C5)cc4oc3=O)nc12 [Compound 331, 7-[(3R,5S)-3,5-dimethylpiperazin-1-yl]-3-(6-fluoro-8-methylimidazo[1,2-a]pyridin-2-yl)-2H-chromen-2-one] | 0.3 to 1 µM |  | * (maximum fold increase of ≤1.2)
172 to 177 °C | Cc1cn2cc(-c3cc4ccc(OC5CCNCC5)cc4oc3=O)nc2c(C)n1 [Compound 897, 3-(6,8-dimethylimidazo[1,2-a]pyrazin-2-yl)-7-(piperidin-4-yloxy)-2H-chromen-2-one] | < 0.1 µM | < 300 nM | ***** (fold increase >1.65)
229 to 232 °C | Cc1cc2cc(-c3cc4ccc(N5CCN(C)CC5)cc4oc3=O)oc2c(C)n1 [Compound 763, 3-(5,7-dimethylfuro[2,3-c]pyridin-2-yl)-7-(4-methylpiperazin-1-yl)-2H-chromen-2-one] | < 0.1 µM | < 300 nM | **** (fold increase between >1.5 and ≤1.65)
